From ChEMBL document CHEMBL4627278, “Discovery of 2-aminoisobutyric acid ethyl ester (AIBEE) phosphoramidate prodrugs for delivering nucleoside HCV NS5B polymerase inhibitors” (Bioorg Med Chem Lett, 2020)
≈ marks a conversion by molar mass, not a printed value.

Tests used:
[1] = Prodrug conversion in dog liver assessed as 1-((2R,3R,4R,5R)-3-bromo-3-chloro-4-hydroxy-5-(hydroxymethyl)tetrahydrofuran-2-yl)pyrimidine-2,4(1H,3H)-dione level at 5 mg/kg, po after 24 hrs; format: ADME, organism-based, Canis lupus familiaris; conditions: in vivo
[2] = Prodrug conversion in dog liver assessed as nucleotide triphosphate level at 5 mg/kg, po co-dosed with 5 mg/kg sofosbuvir after 4 hrs; format: ADME, organism-based, Canis lupus familiaris; conditions: in vivo
[3] = Prodrug conversion in dog liver assessed as 2-((((2R,3R,4R,5R)-4-bromo-4-chloro-5-(2,4-dioxo-3,4-dihydropyrimidin-1(2H)-yl)-3-hydroxytetrahydrofuran-2-yl)methoxy)(hydroxy)phosphorylamino)-2-methylpropanoic acid level at 5 mg/kg, po after 24 hrs; format: ADME, organism-based, Canis lupus familiaris; conditions: in vivo
[4] = Prodrug conversion in human hepatocytes assessed as nucleotide triphosphate level at 100 uM incubated for 4 hrs followed by compound washout and further incubated in fresh media for 24 hrs; format: ADME, cell-based, Hepatocyte
[5] = Prodrug conversion in dog liver assessed as 2-((((2R,3R,4R,5R)-4-bromo-4-chloro-5-(2,4-dioxo-3,4-dihydropyrimidin-1(2H)-yl)-3-hydroxytetrahydrofuran-2-yl)methoxy)(hydroxy)phosphorylamino)-2-methylpropanoic acid level at 5 mg/kg, po after 4 hrs; format: ADME, organism-based, Canis lupus familiaris; conditions: in vivo
[6] = Prodrug conversion in dog liver assessed as 1-((2R,3R,4R,5R)-3-bromo-3-chloro-4-hydroxy-5-(hydroxymethyl)tetrahydrofuran-2-yl)pyrimidine-2,4(1H,3H)-dione level at 5 mg/kg, po after 4 hrs; format: ADME, organism-based, Canis lupus familiaris; conditions: in vivo
[7] = Prodrug conversion in dog liver assessed as nucleotide triphosphate level at 5 mg/kg, po after 4 hrs; format: ADME, organism-based, Canis lupus familiaris; conditions: in vivo
[8] = Aqueous solubility of compound at pH 7.4; format: physicochemical; conditions: buffer
[9] = Stability in dog plasma assessed as parent compound remaining after 4 hrs; format: ADME, cell-free, Canis lupus familiaris; conditions: read-out: Stability
[10] = Prodrug conversion in human hepatocytes assessed as nucleotide triphosphate level at 100 uM after 4 hrs; format: ADME, cell-based, Hepatocyte
[11] = Prodrug conversion in dog liver assessed as (2S)-2-((((2R,3R,4R,5R)-4-bromo-4-chloro-5-(2,4-dioxo-3,4-dihydropyrimidin-1(2H)-yl)-3-hydroxytetrahydrofuran-2-yl)methoxy)(hydroxy)phosphorylamino)propanoic acid level at 5 mg/kg, po after 4 hrs; format: ADME, organism-based, Canis lupus familiaris; conditions: in vivo
[12] = Prodrug conversion in dog liver assessed as nucleotide triphosphate level at 5 mg/kg, po measured after 24 hrs; format: ADME, organism-based, Canis lupus familiaris; conditions: in vivo
[13] = Prodrug conversion in dog liver assessed as (2S)-2-((((2R,3R,4R,5R)-4-bromo-4-chloro-5-(2,4-dioxo-3,4-dihydropyrimidin-1(2H)-yl)-3-hydroxytetrahydrofuran-2-yl)methoxy)(hydroxy)phosphorylamino)propanoic acid level at 5 mg/kg, po after 24 hrs; format: ADME, organism-based, Canis lupus familiaris; conditions: in vivo
[14] = Half life in human hepatocytes; format: ADME, cell-based, Hepatocyte
[15] = Prodrug conversion in dog liver assessed as nucleotide triphosphate level at 5 mg/kg, po co-dosed with 5 mg/kg sofosbuvir after 24 hrs; format: ADME, organism-based, Canis lupus familiaris; conditions: in vivo
[16] = Stability in human plasma assessed as parent compound remaining after 4 hrs; format: ADME, cell-free; conditions: read-out: Stability
[17] = Intrinsic clearance in human hepatocytes; format: ADME, cell-based, Hepatocyte; conditions: read-out: CLH (converted)
[18] = Lipophilicity, log D of compound; format: physicochemical; conditions: octanol/water
[19] = Cytotoxicity against human HuH7 cells assessed as reduction in cell viability; format: cell-based, Huh-7; conditions: read-out: TD50 (the source's name)

Compound: CC(C)C(=O)OC[C@H](C)NP(=O)(OC[C@H]1O[C@@H](n2ccc(=O)[nH]c2=O)[C@](Cl)(Br)[C@@H]1O)Oc1ccccc1 (some centres not stated)
- Drug metabolism [1]: 0.006 µg/g
- Drug metabolism [2]: 3.04 µg/g
- Drug metabolism [3]: < 0.005 µg/g
- Drug metabolism [4]: 32 µM
- Drug metabolism [5]: 0.151 µg/g
- Drug metabolism [6]: 0.177 µg/g
- Drug metabolism [7]: 0.252 µg/g
- solubility [8]: > 200 µM
- remaining at 4 h [9]: 54%
- Drug metabolism [10]: 2377 µM
- Drug metabolism [11]: 0.151 µg/g
- Drug metabolism [12]: 0.037 µg/g
- Drug metabolism [13]: < 0.005 µg/g
- half-life [14]: > 30 min
- Drug metabolism [15]: 1.12 µg/g
- remaining at 4 h [16]: 0%

Compound: CC(C)OC(=O)[C@H](C)N[P@@](=O)(OC[C@H]1O[C@@H](n2ccc(=O)[nH]c2=O)[C@](Cl)(Br)[C@@H]1O)Oc1ccccc1
- Drug metabolism [1]: 0.009 µg/g
- Drug metabolism [2]: 1.76 µg/g
- Drug metabolism [3]: < 0.005 µg/g
- Drug metabolism [4]: 24 µM
- Drug metabolism [5]: 0.644 µg/g
- Drug metabolism [6]: 0.501 µg/g
- Drug metabolism [7]: 0.143 µg/g
- solubility [8]: > 200 µM
- Drug metabolism [10]: 107 µM
- CLint scaled [17]: 12.1 L/h/kg
- Drug metabolism [11]: 0.644 µg/g
- Drug metabolism [12]: 0.036 µg/g
- Drug metabolism [13]: < 0.005 µg/g
- half-life [14]: > 30 min
- Drug metabolism [15]: 1.26 µg/g

Compound: COc1cccc(O[P@](=O)(N[C@@H](C)C(=O)OC(C)C)OC[C@H]2O[C@@H](n3ccc(=O)[nH]c3=O)[C@](Cl)(Br)[C@@H]2O)c1
- Drug metabolism [4]: 14 µM
- solubility [8]: 20 µM (≈ 12.8 µg/mL)
- Drug metabolism [10]: 35 µM
- CLint scaled [17]: 20.1 L/h/kg
- half-life [14]: > 30 min

Compound: CC(C)OC(=O)[C@H](C)N[P@](=O)(OC[C@H]1O[C@@H](n2ccc(=O)[nH]c2=O)[C@](Cl)(Br)[C@@H]1OC(=O)[C@@H](N)C(C)C)Oc1ccccc1
- Drug metabolism [1]: 0.029 µg/g
- Drug metabolism [2]: 3.1 µg/g
- Drug metabolism [3]: 0.006 µg/g
- Drug metabolism [4]: 24 µM
- Drug metabolism [5]: 0.359 µg/g
- Drug metabolism [6]: 0.341 µg/g
- Drug metabolism [7]: 0.828 µg/g
- solubility [8]: > 200 µM
- Drug metabolism [10]: 169 µM
- Drug metabolism [11]: 0.359 µg/g
- Drug metabolism [12]: 0.409 µg/g
- Drug metabolism [13]: 0.006 µg/g
- half-life [14]: > 30 min
- Drug metabolism [15]: 2.89 µg/g

Compound: CCOC(=O)[C@H](C)NP(=O)(OC[C@H]1O[C@@H](n2ccc(=O)[nH]c2=O)[C@](Cl)(Br)[C@@H]1O)Oc1ccccc1 (some centres not stated)
- Drug metabolism [1]: < 0.025 µg/g
- Drug metabolism [2]: 3.87 µg/g
- Drug metabolism [3]: 0.007 µg/g
- Drug metabolism [5]: 0.357 µg/g
- Drug metabolism [6]: 0.821 µg/g
- Drug metabolism [7]: 1.24 µg/g
- remaining at 4 h [9]: 93%
- Drug metabolism [11]: 0.357 µg/g
- Drug metabolism [12]: 0.629 µg/g
- Drug metabolism [13]: 0.007 µg/g
- Drug metabolism [15]: 3.18 µg/g
- remaining at 4 h [16]: 86%

Compound: CC(C)OC(=O)C(C)(C)NP(=O)(OC[C@H]1O[C@@H](n2ccc(=O)[nH]c2=O)[C@](Cl)(Br)[C@@H]1O)Oc1ccccc1 (some centres not stated)
- Drug metabolism [1]: 0.04 µg/g
- Drug metabolism [2]: 4.2 µg/g
- Drug metabolism [4]: 40 µM
- Drug metabolism [6]: 0.252 µg/g
- Drug metabolism [7]: 0.713 µg/g
- solubility [8]: > 200 µM
- remaining at 4 h [9]: 104%
- Drug metabolism [10]: 157 µM
- CLint scaled [17]: 11.5 L/h/kg
- Drug metabolism [12]: 0.244 µg/g
- half-life [14]: > 30 min
- Drug metabolism [15]: 3.43 µg/g
- remaining at 4 h [16]: 109%

Compound: CCOC(=O)C(C)(C)NP(=O)(OC[C@H]1O[C@@H](n2ccc(=O)[nH]c2=O)[C@](Cl)(Br)[C@@H]1O)Oc1ccccc1 (some centres not stated)
- Drug metabolism [1]: 0.192 µg/g
- Drug metabolism [2]: 4.02 µg/g
- Drug metabolism [3]: 0.065 µg/g
- Drug metabolism [4]: 43 µM
- Drug metabolism [5]: 0.232 µg/g
- Drug metabolism [6]: 1.335 µg/g
- Drug metabolism [7]: 14.73 µg/g
- solubility [8]: > 200 µM
- remaining at 4 h [9]: 111%
- Drug metabolism [10]: 2114 µM
- CLint scaled [17]: 41.1 L/h/kg
- Drug metabolism [11]: 0.232 µg/g
- Drug metabolism [12]: 4.56 µg/g
- Drug metabolism [13]: 0.065 µg/g
- half-life [14]: > 30 min
- Drug metabolism [15]: 3.47 µg/g
- remaining at 4 h [16]: 103%

Compound: COCC(C)C(=O)OC[C@H](C)NP(=O)(OC[C@H]1O[C@@H](n2ccc(=O)[nH]c2=O)[C@](Cl)(Br)[C@@H]1O)Oc1ccccc1 (some centres not stated)
- Drug metabolism [4]: 24 µM
- Drug metabolism [10]: 188 µM
- CLint scaled [17]: 16.9 L/h/kg
- half-life [14]: > 30 min

Compound: COCC(C)OC(=O)[C@H](C)NP(=O)(OC[C@H]1O[C@@H](n2ccc(=O)[nH]c2=O)[C@](Cl)(Br)[C@@H]1O)Oc1ccccc1 (some centres not stated)
- Drug metabolism [1]: 0.038 µg/g
- Drug metabolism [4]: 31 µM
- Drug metabolism [6]: 0.187 µg/g
- Drug metabolism [7]: 0.329 µg/g
- solubility [8]: > 200 µM
- remaining at 4 h [9]: 84%
- Drug metabolism [10]: 465 µM
- CLint scaled [17]: 14.5 L/h/kg
- Drug metabolism [12]: 0.188 µg/g
- half-life [14]: > 30 min
- remaining at 4 h [16]: 87%

Compound: CC(C)OC(=O)[C@H](C)N[P@](=O)(OC[C@H]1O[C@@H](n2ccc(=O)[nH]c2=O)[C@](Cl)(Br)[C@@H]1O)Oc1cccc2ccccc12
- Drug metabolism [4]: 9 µM
- solubility [8]: 17 µM (≈ 11.2 µg/mL)
- Drug metabolism [10]: 81 µM
- CLint scaled [17]: 34.5 L/h/kg
- half-life [14]: > 30 min

Compound: CCOC(=O)[C@H](C)N[P@@](=O)(OC[C@H]1O[C@@H](n2ccc(=O)[nH]c2=O)[C@](Cl)(Br)[C@@H]1O)Oc1ccccc1
- Drug metabolism [4]: 39 µM
- Drug metabolism [10]: 738 µM
- CLint scaled [17]: 11.1 L/h/kg
- half-life [14]: > 30 min

Compound: CCOC(=O)[C@H](C)N[P@](=O)(OC[C@H]1O[C@@H](n2ccc(=O)[nH]c2=O)[C@](Cl)(Br)[C@@H]1O)Oc1ccccc1
- Drug metabolism [4]: 18 µM
- Drug metabolism [10]: 90 µM
- CLint scaled [17]: 9.1 L/h/kg
- half-life [14]: > 30 min

Compound: COCC(=O)OC[C@H](C)NP(=O)(OC[C@H]1O[C@@H](n2ccc(=O)[nH]c2=O)[C@](Cl)(Br)[C@@H]1O)Oc1ccccc1 (some centres not stated)
- Drug metabolism [4]: 16 µM
- Drug metabolism [10]: 120 µM
- CLint scaled [17]: 13.4 L/h/kg
- half-life [14]: > 30 min

Compound: CC(C)OC(=O)[C@H](C)N[P@](=O)(OC[C@H]1O[C@@H](n2ccc(=O)[nH]c2=O)[C@](C)(F)[C@@H]1O)Oc1ccccc1 [SOFOSBUVIR]
- logD [18]: 3.02
- Drug metabolism [4]: 122 µM
- solubility [8]: > 200 µM
- Drug metabolism [10]: 97 µM
- CLint scaled [17]: 4.3 L/h/kg
- CC50 [19]: > 100 µM
- half-life [14]: 120 min

Compound: CC(C)OC(=O)[C@H](C)N[P@](=O)(OC[C@H]1O[C@@H](n2ccc(=O)[nH]c2=O)[C@](Cl)(Br)[C@@H]1OC(=O)[C@@H](N)C(C)C)Oc1cccc2ccccc12
- solubility [8]: 4 µM (≈ 3.04 µg/mL)
- half-life [14]: > 30 min

Compound: CC(C)OC(=O)[C@H](C)N[P@](=O)(OC[C@H]1O[C@@H](n2ccc(=O)[nH]c2=O)[C@](Cl)(Br)[C@@H]1O)Oc1ccccc1
- logD [18]: 3.51
- Drug metabolism [1]: 0.011 µg/g
- Drug metabolism [2]: 1.59 µg/g
- Drug metabolism [3]: 0.006 µg/g
- Drug metabolism [4]: 22 µM
- Drug metabolism [5]: 0.066 µg/g
- Drug metabolism [6]: 1.469 µg/g
- Drug metabolism [7]: 0.088 µg/g
- solubility [8]: 23 µM (≈ 14 µg/mL)
- remaining at 4 h [9]: 92%
- Drug metabolism [10]: 110 µM
- CLint scaled [17]: 16.4 L/h/kg
- Drug metabolism [11]: 0.066 µg/g
- Drug metabolism [12]: 0.049 µg/g
- CC50 [19]: 62 µM
- Drug metabolism [13]: 0.006 µg/g
- half-life [14]: 15 min
- Drug metabolism [15]: 1.02 µg/g
- remaining at 4 h [16]: 92%
